In brackets after ≈: the same amount, converted by molar mass. Like-named read-outs stand apart in the source and are kept apart here.
Tests used:
Format in all cases: cell-based
[1] = test system: Bacillus cereus ATCC 9634; assay: antimicrobial activity, broth dilution method; conditions: Bacillus cereus, ATCC9634, Bacillus cereus ATCC 9634; broth dilution; read-out: minimum inhibitory concentration (MIC)
Method: (§1) Antimicrobial activity of the new antibiotics according to the present invention was measured on various pathogenic microorganisms by the broth dilution mehtod. Tab. […] The new antibiotics show a similar antimicrobial spectrum to that of tylosin as shown in Tab. 4. All the compounds have an excellent antimicrobial activity mainly on gram-positive bacteria. […] Test microorganisms with an asterisk mark (*) in Tab. 4 are all drug-resistant strains that were clinically isolated. More in detail, Staphylococcus aureus MS-8710 is resistant to tylosin, penicillin, tetracycline, erythromycin and leucomycin. Staphylococcus aureus MS-9931 is resistant to tylosin, penicillin, erythromycin, tetracycline, leucomycin, spiramycin and josamycin. And also Streptococcus piogenes is resistant to tylosin, erythromycin, oleandomycin and leucomycin.

Sarcina lutea ATCC 9341 = assay: antimicrobial activity, broth dilution method; conditions: Micrococcus luteus, ATCC9341, Sarcina lutea ATCC 9341, read-out: minimum inhibitory concentration (MIC)
Method: as §1

[2] = test system: Staphylococcus aureus FDA-209P; assay: antimicrobial activity, broth dilution method; conditions: Staphylococcus aureus, FDA209P, Staphylococcus aureus FDA-209P; broth dilution; read-out: minimum inhibitory concentration (MIC)
Method: as §1

[3] = test system: Staphylococcus aureus MS-8710; assay: antimicrobial activity, broth dilution method; conditions: Staphylococcus aureus, MS8710, Staphylococcus aureus MS-8710, drug-resistant clinical isolate; read-out: minimum inhibitory concentration (MIC)
Method: as §1

[4] = test system: Staphylococcus aureus MS-9931; assay: antimicrobial activity, broth dilution method; conditions: MS9931; Staphylococcus aureus MS-9931, drug-resistant clinical isolate; read-out: minimum inhibitory concentration (MIC)
Method: as §1

[5] = test system: Staphylococcus aureus MS-9937; assay: antimicrobial activity, broth dilution method; conditions: MS9937; Staphylococcus aureus MS-9937, drug-resistant clinical isolate; read-out: minimum inhibitory concentration (MIC)
Method: as §1

[6] = test system: Staphylococcus aureus SMITH; assay: antimicrobial activity, broth dilution method; conditions: Staphylococcus aureus, Staphylococcus aureus SMITH; broth dilution; read-out: minimum inhibitory concentration (MIC)
Method: as §1

[7] = test system: Streptococcus pyogenes MH-771; assay: antimicrobial activity, broth dilution method; conditions: Streptococcus pyogenes, MH771, Streptococcus pyogenes MH-771, drug-resistant clinical isolate; read-out: minimum inhibitory concentration (MIC)
Method: as §1

[8] = test system: Mycoplasma gallisepticum KP-13; assay: antibacterial activity against Mycoplasma; conditions: Mycoplasmoides gallisepticum, KP13; strain KP-13; Eiken PPLO Medium; read-out: MIC
Description: (§2) Furthermore the new antibiotics according to the present invention also show antimicrobial activity on Mycoplasma. In particular, it is noteworthy that they have much higher antimicrobial activity than tylosin on Mycoplasma that is resistant to macrolide antibiotics. Tab.
(§3) **Medium (Eiken PPLO Medium)

[9] = test system: Mycoplasma gallisepticum A-72; assay: antibacterial activity against Mycoplasma; conditions: Mycoplasmoides gallisepticum, A72; strain A-72, macrolide resistant; Eiken PPLO Medium
Description: as §2
(§4) *Macrolide resistant strain
as §3

[10] = test system: Mycoplasma gallisepticum E-11; assay: antibacterial activity against Mycoplasma; conditions: Mycoplasmoides gallisepticum, E11
Description: as §2, §4, §3

[11] = test system: Mycoplasma gallisepticum E-5; assay: antibacterial activity against Mycoplasma; conditions: Mycoplasmoides gallisepticum, E5
Description: as §2, §4, §3

Row | SMILES | MIC [1] [µg/mL] | MIC (Sarcina lutea ATCC 9341) [µg/mL] | MIC [2] [µg/mL] | MIC [3] [µg/mL] | MIC [4] [µg/mL] | MIC [5] [µg/mL] | MIC [6] [µg/mL] | MIC [7] [µg/mL] | MIC [8] [µg/mL] | MIC [9] [µg/mL] | MIC [10] [µg/mL] | MIC [11] [µg/mL] | MIC ([10]; strain E-11, macrolide resistant, Eiken PPLO Medium, read-out: MIC) [µg/mL] | MIC ([11]; strain E-5, macrolide resistant, Eiken PPLO Medium, read-out: MIC) [µg/mL]
1 | CCC1OC(=O)CC(O)C(C)C(OC2OC(C)C(OC3CC(C)(O)C(OC(=O)CSC4CCCCC4)C(C)O3)C(N(C)C)C2O)C(CC=O)CC(C)C(=O)C=CC(C)=CC1COC1OC(C)C(O)C(OC)C1OC (stereo not shown) [Compound 40, 4"-cyclohexylthioacetyltylosin] | 0.78 (≈ 0.727 µM) | 0.39 (≈ 0.364 µM) | 0.78 (≈ 0.727 µM) | 12.5 (≈ 11.7 µM) | 12.5 (≈ 11.7 µM) | 25 (≈ 23.3 µM) | 0.78 (≈ 0.727 µM) | 6.25 (≈ 5.83 µM) | 0.078 (≈ 0.0727 µM) | 0.157 (≈ 0.146 µM) | 0.157 (≈ 0.146 µM) | 0.157 (≈ 0.146 µM) |  | 
2 | CCC1OC(=O)CC(O)C(C)C(OC2OC(C)C(OC3CC(C)(O)C(OC(=O)CSc4ccncc4)C(C)O3)C(N(C)C)C2O)C(CC=O)CC(C)C(=O)C=CC(C)=CC1COC1OC(C)C(O)C(OC)C1OC (stereo not shown) [Compound 41, 4"-(4-pyridyl)thioacetyltylosin] | 0.39 (≈ 0.365 µM) | 0.19 (≈ 0.178 µM) | 0.78 (≈ 0.731 µM) | 12.5 (≈ 11.7 µM) | 12.5 (≈ 11.7 µM) | 12.5 (≈ 11.7 µM) | 0.39 (≈ 0.365 µM) | 12.5 (≈ 11.7 µM) | 0.039 (≈ 0.0365 µM) | 0.157 (≈ 0.147 µM) |  |  | 0.313 (≈ 0.293 µM) | 0.313 (≈ 0.293 µM)
3 | CCC1OC(=O)CC(O)C(C)C(OC2OC(C)C(OC3CC(C)(O)C(OC(=O)C(C)Oc4ccccc4)C(C)O3)C(N(C)C)C2O)C(CC=O)CC(C)C(=O)C=CC(C)=CC1COC1OC(C)C(O)C(OC)C1OC (stereo not drawn) [Compound 46, 4"-α-phenoxypropionyltylosin] | 0.39 (≈ 0.366 µM) | 0.19 (≈ 0.179 µM) | 0.78 (≈ 0.733 µM) | 25 (≈ 23.5 µM) | 25 (≈ 23.5 µM) | 50 (≈ 47 µM) | 0.39 (≈ 0.366 µM) | 12.5 (≈ 11.7 µM) |  |  |  |  |  | 

Further molecules by falling MIC [1], results first:

Row | MIC [1] [µg/mL] | MIC (Sarcina lutea ATCC 9341) [µg/mL] | MIC [2] [µg/mL] | MIC [3] [µg/mL] | MIC [4] [µg/mL] | MIC [5] [µg/mL] | MIC [6] [µg/mL] | MIC [7] [µg/mL] | SMILES | MIC [8] [µg/mL] | MIC [9] [µg/mL] | MIC [10] [µg/mL] | MIC [11] [µg/mL] | MIC ([10]; strain E-11, macrolide resistant, Eiken PPLO Medium, read-out: MIC) [µg/mL] | MIC ([11]; strain E-5, macrolide resistant, Eiken PPLO Medium, read-out: MIC) [µg/mL]
4 | 0.78 (≈ 0.743 µM) | 0.19 (≈ 0.181 µM) | 0.39 (≈ 0.371 µM) | 25 (≈ 23.8 µM) | 25 (≈ 23.8 µM) | 25 (≈ 23.8 µM) | 0.39 (≈ 0.371 µM) | 6.25 (≈ 5.95 µM) | CCC1OC(=O)CC(O)C(C)C(OC2OC(C)C(OC3CC(C)(O)C(OC(=O)COc4ccccc4)C(C)O3)C(N(C)C)C2O)C(CC=O)CC(C)C(=O)C=CC(C)=CC1COC1OC(C)C(O)C(OC)C1OC (stereo not shown) [Compound 44, 4"-phenoxyacetyltylosin] |  |  |  |  |  | 
5 | 0.78 (≈ 0.709 µM) | 0.19 (≈ 0.173 µM) | 0.78 (≈ 0.709 µM) | 25 (≈ 22.7 µM) | 25 (≈ 22.7 µM) | 25 (≈ 22.7 µM) | 0.78 (≈ 0.709 µM) | 12.5 (≈ 11.4 µM) | CCC1OC(=O)CC(O)C(C)C(OC2OC(C)C(OC3CC(C)(O)C(OC(=O)COc4ccc5ccccc5c4)C(C)O3)C(N(C)C)C2O)C(CC=O)CC(C)C(=O)C=CC(C)=CC1COC1OC(C)C(O)C(OC)C1OC (stereo not drawn) [Compound 47, 4"-β-napthoxyacetyltylosin] |  |  |  |  |  | 
6 | 0.39 (≈ 0.352 µM) | 0.19 (≈ 0.171 µM) | 0.39 (≈ 0.352 µM) | 6.25 (≈ 5.63 µM) | 12.5 (≈ 11.3 µM) | 6.25 (≈ 5.63 µM) | 0.39 (≈ 0.352 µM) | 3.13 (≈ 2.82 µM) | CCC1OC(=O)CC(OC(C)=O)C(C)C(OC2OC(C)C(OC3CC(C)(O)C(OC(=O)CSc4ccncc4)C(C)O3)C(N(C)C)C2O)C(CC=O)CC(C)C(=O)C=CC(C)=CC1COC1OC(C)C(O)C(OC)C1OC (stereo not shown) [Compound 42, 3-acetyl-4"-(4-pyridyl)thioacetyltylosin] |  |  |  |  |  | 
7 | 0.39 (≈ 0.357 µM) | 0.19 (≈ 0.174 µM) | 0.39 (≈ 0.357 µM) | 100 (≈ 91.6 µM) | 25 (≈ 22.9 µM) | 25 (≈ 22.9 µM) | 0.39 (≈ 0.357 µM) | 12.5 (≈ 11.4 µM) | CCC1OC(=O)CC(OC(C)=O)C(C)C(OC2OC(C)C(OC3CC(C)(O)C(OC(=O)COc4ccccc4)C(C)O3)C(N(C)C)C2O)C(CC=O)CC(C)C(=O)C=CC(C)=CC1COC1OC(C)C(O)C(OC)C1OC (stereo not shown) [Compound 45, 3-acetyl-4"-phenoxyacetyltylosin] |  |  |  |  |  | 

Reference: patent US4205163A, “Tylosin derivatives” (Sanraku-Ocean Co., Ltd., priority 1977, dated 1980)
